According to patent publication US7772228B2, “Method for treatment of bacterial infections with once or twice-weekly administered rifalazil” (priority 1998, dated 2010):
Like-named read-outs stand apart in the source and are kept apart here.

Legend:
[1] = Clinical trial 005, rifalazil concentration in plasma of tuberculosis patients; assay type: in vivo, human; settings: for maximum concentration of the drug in plasma: six hours; for concentration at 3 h / concentration at 11 day / concentration at 15 day / concentration at 0 h / concentration at 2 h / concentration at 5 h / concentration at 9 h / concentration at 12 h / concentration at 24 h / concentration at 48 h / concentration at 72 h: human, plasma; for concentration at 3 h: three hours; for concentration at 11 day: Day 11; for concentration at 15 day: Day 15; for concentration at 0 h: Hour 0; for concentration at 2 h: Hour 2; for concentration at 5 h: Hour 5; for concentration at 9 h: Hour 9; for concentration at 12 h: Hour 12; for concentration at 24 h: Hour 24; for concentration at 48 h: Hour 48; for concentration at 72 h: Hour 72
Protocol: Definite diagnosis and evaluation of treatment efficacy requires direct examination of sputum for the presence of M. tuberculosis. The extent of M. tuberculosis infection is determined by number of bacteria able to form colonies and is expressed as colony forming units. When the number of colony forming units (CFU) is high, the infection is unhindered. When the CFU decreases, the number of active M. tuberculosis bacteria decreases. The CFU, typically expressed as Log10, have therefore important diagnostic and treatment evaluative value.
Table 21 summarizes the plasma concentrations data of rifalazil measured in patients that received rifalazil at zero hour. The data are separated into 2 groups and are identified as INH+10 mg rifalazil (Group 3) and INH+25 mg rifalazil (Group 4). The concentration of rifalazil in plasma is presented in ng/mL and are shown as a timecourse (hours and days) wherein values were determined at several times over the two weeks of the study.

[2] = test system: Chlamydia pneumoniae strain TW-l 83; assay: Sensitivity testing in cell cultures; assay type: cell-based
Protocol: Sensitivity testing was conducted in cell cultures against Chlamydia pneumoniae strain TW-l 83 using rifalazil, clanthromycin, or azithromycin. […] The in vivo testing of rifalazil used a mouse model infected with Chlamydia pneumoniae strain AR-39. […] All control animals remained infected.

clinical = settings: human, in vivo
Source text: Pharmacokinetic analyses associated with clinical trials involved measurement of concentrations of rifalazil in plasma and/or whole blood of subjects participating in the four Phase 1 studies using high performance liquid chromatography.
Attempts were made to analyze the multiple-dose pharmacokinetics using a linear 3-compartment model, and a 3-compartment model incorporating enzyme induction. However, neither multi-compartmental model accurately characterized the pharmacokinetic parameters in all subjects. Daily dosing and related early terminations due to adverse reactions, differences in bioavailability from a food effect, and nonconnective dose administration further complicated these analyses. Therefore, only noncompartmental pharmacokinetic parameters were derived for clinical trials 003 and 004.

Helicobacter pylori = test system: Helicobacter pylori; design: unit of the concentration uncertain; settings: time-kill, broth medium, 0.04 (unit uncertain); cited from earlier work
in vivo = assay: in vivo; design: species or system rats; settings: rat
Protocol: In chronic studies with dogs and rats, the no-observed-adverse-effect-level was 1000 mg/kg. […] Significant partitioning of drug-related radioactivity to the formed elements of the blood was observed. […] The urine contained a small amount (5.5%) of radioactivity.
Pharmacokinetic parameters were determined following single and multiple doses in rats and dogs. The doses in rats and dogs were based upon those utilized in the single and multiple-dose toxicology studies. In addition, the absorption, distribution, metabolism, and elimination of rifalazil was studied in rats and dogs. These studies confirmed prior findings that there are species differences vis-a-vis sensitivity to and response to treatment with rifalazil.

[3] = 10 mg, INH + 10 mg KRM, read-out: Rifalazil Concentration in Plasma, Max
[4] = 10 mg, INH + 10 mg KRM, read-out: Rifalazil Concentration in Plasma, Med
[5] = 10 mg, INH + 10 mg KRM, read-out: Rifalazil Concentration in Plasma, Min
[6] = 25 mg, INH + 25 mg KRM, read-out: Rifalazil Concentration in Plasma, Max
[7] = 25 mg, INH + 25 mg KRM, read-out: Rifalazil Concentration in Plasma, Mean
[8] = 25 mg, INH + 25 mg KRM, read-out: Rifalazil Concentration in Plasma, Med
[9] = 25 mg, INH + 25 mg KRM, read-out: Rifalazil Concentration in Plasma, Min
[10] = INH + 10 mg KRM, read-out: Rifalazil Concentration in Plasma, Mean
[11] = INH + 10 mg KRM, read-out: Rifalazil Concentration in Plasma, Max
[12] = INH + 10 mg KRM, read-out: Rifalazil Concentration in Plasma, Med
[13] = INH + 10 mg KRM, read-out: Rifalazil Concentration in Plasma, Min
[14] = INH + 25 mg KRM, read-out: Rifalazil Concentration in Plasma, Max
[15] = INH + 25 mg KRM, read-out: Rifalazil Concentration in Plasma, Mean
[16] = INH + 25 mg KRM, read-out: Rifalazil Concentration in Plasma, Med
[17] = INH + 25 mg KRM, read-out: Rifalazil Concentration in Plasma, Min

CO[C@H]1/C=C/O[C@@]2(C)Oc3c(C)c(O)c4c(=O)c(c5oc6cc(N7CCN(CC(C)C)CC7)cc(O)c6nc-5c4c3C2=O)NC(=O)/C(C)=C\C=C\[C@H](C)[C@H](O)[C@@H](C)[C@@H](O)[C@@H](C)[C@H](OC(C)=O)[C@@H]1C [Rifalazil, 3′-hydroxy-5′-(4-isobutyl-1-piperazinyl)benzoxasinorifamycin]
maximum concentration of the drug in plasma ([1]; 10 mg rifalazil): 12.68 ng/mL | maximum concentration of the drug in plasma ([1]; 25 mg rifalazil): 28.47 ng/mL | drug in plasma ([1]; 72 hours (3 days)): still measurable amount of drug in plasma | Rifalazil Concentration in Plasma, Max ([1]; INH + 10 mg KRM, Day 4 M-0): 0 ng/mL | Rifalazil Concentration in Plasma, Mean ([1]; INH + 10 mg KRM, Day 4 M-0): 0 ng/mL | Rifalazil Concentration in Plasma, Med ([1]; INH + 10 mg KRM, Day 4 M-0): 0 ng/mL | Rifalazil Concentration in Plasma, Min ([1]; INH + 10 mg KRM, Day 4 M-0): 0 ng/mL | Rifalazil Concentration in Plasma, Max ([1]; INH + 10 mg KRM, Day 8 M-4): 21.9 ng/mL | Rifalazil Concentration in Plasma, Mean ([1]; INH + 10 mg KRM, Day 8 M-4): 18.31 ng/mL | Rifalazil Concentration in Plasma, Min ([1]; INH + 10 mg KRM, Day 8 M-4): 9.7 ng/mL | Rifalazil Concentration in Plasma, Max ([1]; INH + 25 mg KRM, Day 4 M-0): 0 ng/mL | Rifalazil Concentration in Plasma, Mean ([1]; INH + 25 mg KRM, Day 4 M-0): 0 ng/mL | Rifalazil Concentration in Plasma, Med ([1]; INH + 25 mg KRM, Day 4 M-0): 0 ng/mL | Rifalazil Concentration in Plasma, Min ([1]; INH + 25 mg KRM, Day 4 M-0): 0 ng/mL | Rifalazil Concentration in Plasma, Max ([1]; INH + 25 mg KRM, Day 8 M-4): 41.0 ng/mL | Rifalazil Concentration in Plasma, Mean ([1]; INH + 25 mg KRM, Day 8 M-4): 29.02 ng/mL | Rifalazil Concentration in Plasma, Med ([1]; INH + 25 mg KRM, Day 8 M-4): 28.5 ng/mL | Rifalazil Concentration in Plasma, Min ([1]; INH + 25 mg KRM, Day 8 M-4): 11.7 ng/mL | concentration at 3 h ([1]; 10 mg, 10 mg of rifalazil): 9.7 ng/mL | concentration at 11 day [1, 3]: 2.5 ng/mL | concentration at 11 day [1, 4]: 1.4 ng/mL | concentration at 11 day [1, 5]: 2 ng/mL | concentration at 15 day [1, 3]: 0 ng/mL | concentration at 15 day [1, 4]: 3 ng/mL | concentration at 15 day [1, 5]: 0 ng/mL | concentration at 3 h ([1]; 25 mg, 25 mg rifalazil): 15.9 ng/mL | concentration at 11 day [1, 6]: 9.1 ng/mL | concentration at 11 day [1, 7]: 4.12 ng/mL | concentration at 11 day [1, 8]: 3.3 ng/mL | concentration at 11 day [1, 9]: 2.2 ng/mL | concentration at 15 day [1, 6]: 3.4 ng/mL | concentration at 15 day [1, 7]: 0.95 ng/mL | concentration at 15 day [1, 8]: 0 ng/mL | concentration at 15 day [1, 9]: 0 ng/mL | concentration at 11 day [1, 10]: 2.4 ng/mL | concentration at 15 day [1, 10]: 3 ng/mL | concentration at 0 h [1, 11]: 0 ng/mL | concentration at 0 h [1, 10]: 0 ng/mL | concentration at 0 h [1, 12]: 3 ng/mL | concentration at 0 h [1, 13]: 0 ng/mL | concentration at 2 h [1, 11]: 20.3 ng/mL | concentration at 2 h [1, 10]: 9.7 ng/mL | concentration at 2 h [1, 12]: 9 ng/mL | concentration at 2 h [1, 13]: 0 ng/mL | concentration at 5 h [1, 11]: 22.7 ng/mL | concentration at 5 h [1, 10]: 12.5 ng/mL | concentration at 5 h [1, 12]: 11.9 ng/mL | concentration at 5 h [1, 13]: 4.2 ng/mL | concentration at 9 h [1, 11]: 19.2 ng/mL | concentration at 9 h [1, 10]: 9.75 ng/mL | concentration at 9 h [1, 12]: 10.3 ng/mL | concentration at 9 h [1, 13]: 3 ng/mL | concentration at 12 h [1, 11]: 11.9 ng/mL | concentration at 12 h [1, 10]: 10.7 ng/mL | concentration at 12 h [1, 12]: 11.4 ng/mL | concentration at 12 h [1, 13]: 6.2 ng/mL | concentration at 24 h [1, 11]: 5 ng/mL | concentration at 24 h [1, 10]: 3.6 ng/mL | concentration at 24 h [1, 12]: 3.55 ng/mL | concentration at 24 h [1, 13]: 2.3 ng/mL | concentration at 48 h [1, 11]: 2.5 ng/mL | concentration at 48 h [1, 10]: 1.4 ng/mL | concentration at 48 h [1, 12]: 2.5 ng/mL | concentration at 48 h [1, 13]: 2.2 ng/mL | concentration at 72 h [1, 11]: 2.2 ng/mL | concentration at 72 h [1, 12]: 1 ng/mL | concentration at 72 h [1, 13]: 0 ng/mL | concentration at 0 h [1, 14]: 0 ng/mL | concentration at 0 h [1, 15]: 0 ng/mL | concentration at 0 h [1, 16]: 0 ng/mL | concentration at 0 h [1, 17]: 0 ng/mL | concentration at 2 h [1, 14]: 26.4 ng/mL | concentration at 2 h [1, 15]: 15.3 ng/mL | concentration at 2 h [1, 16]: 11.4 ng/mL | concentration at 2 h [1, 17]: 2.3 ng/mL | concentration at 5 h [1, 14]: 42.7 ng/mL | concentration at 5 h [1, 15]: 25.5 ng/mL | concentration at 5 h [1, 16]: 30.9 ng/mL | concentration at 5 h [1, 17]: 5.5 ng/mL | concentration at 9 h [1, 14]: 38.2 ng/mL | concentration at 9 h [1, 15]: 21.6 ng/mL | concentration at 9 h [1, 16]: 22.1 ng/mL | concentration at 9 h [1, 17]: 4.2 ng/mL | concentration at 12 h [1, 14]: 20.5 ng/mL | concentration at 12 h [1, 15]: 16.3 ng/mL | concentration at 12 h [1, 16]: 18.1 ng/mL | concentration at 12 h [1, 17]: 11.1 ng/mL | concentration at 24 h [1, 14]: 12.2 ng/mL | concentration at 24 h [1, 15]: 7.72 ng/mL | concentration at 24 h [1, 16]: 6.7 ng/mL | concentration at 24 h [1, 17]: 4.3 ng/mL | concentration at 48 h [1, 14]: 5.3 ng/mL | concentration at 48 h [1, 15]: 2.15 ng/mL | concentration at 48 h [1, 16]: 3.9 ng/mL | concentration at 48 h [1, 17]: 0 ng/mL | concentration at 72 h [1, 14]: 3.2 ng/mL | concentration at 72 h [1, 15]: 2.15 ng/mL | concentration at 72 h [1, 16]: 2.7 ng/mL | concentration at 72 h [1, 17]: 0 ng/mL | fold more potent than clanthromycin [2]: 300 fold | fold more potent than erythromycin [2]: 1500 fold | Half-life distribution t½ (mean) (clinical): 17.26 h | half-life (clinical; Half-life distribution t½ (mean)): 10.1 h | Tmax (clinical; Tmax (mean)): 5.25 h | CFUs at 24 hours lower than the control at zero hours (Helicobacter pylori): more than 4.5 log | CL/F (in vivo; female): 3.62 mL/min/kg | CL/F (in vivo; male): 3.07 mL/min/kg | half-life (in vivo): 12.5 h | radioactivity in the urine (in vivo): 5.5% | radioactivity recovered in the feces (in vivo): 84% | bioavailability (in vivo; 3 mg/kg): 30 to 40%
